Laboratory results reported in patent US20190133979A1, “METHOD FOR ENHANCING DELIVERY OF THERAPEUTIC DRUGS TO TREATMENT SITES” (Chang Gung University, priority 2013, published 2019).
Entries after “also recorded” stand apart in the source; their conditions may differ.

Experiments:
LN229 cells [1] = experiment: Determination of cell-associated MNPs (MNPcell) in LN229 cells; assay type: cell-based, human; conditions: for increase of MNPcell / enhancement of MNPcell at 4° C.: LN229 cells; for enhancement of MNPcell at 4° C.: 30 μM, 2 h; for effect on cell-associated MNPs (MNPcell), in words: LN-229 cells, with or without magnetic field; for effect on uptake of MNPs, in words: MNPs 100 μg/mL, 10 or 30 μM, 24 hrs, vs vehicle; for increase of cellular uptake of MNP: vs without compound; for concentration as low as which cellular uptake of MNPs is significantly increased / capability of enhancing cellular uptake of MNPs, in words: FIG. 4; for capability of enhancing cellular uptake of MNPs, in words: LN-299 [sic] cells
Method: (§1) LN229 cells, human glioma cells, were cultured in DMEM medium; whereas HeLa cells, human cervical cancer cells, were cultured in MEM medium. Both media were supplemented with 10% fetal bovine serum (FBS) and 1% penicillin/streptomycin/amphotericin B solution. The cells were maintained in a 37° C. incubator supplied with 5% CO2 and sub-cultured every 3 to 4 days.
LN229 or HeLa cells were seeded and grown in 24-well plates. […] In some experiments, cells were equilibrated at 4° C. for 20 min, followed by an additional 2-h incubation with MNPs at 4° C. in the absence and presence of the magnet. A home-made magnetic plate with 24 pieces of cylindrical NdFeB magnet were used to provide a magnetic field of 3.4 kG at the center of each well. For the group without the magnet during incubation with MNPs, the magnetic plate was placed underneath the culture plates for 5 min after MNP administration to facilitate MNP sedimentation. The cells were then washed twice with phosphate-buffered saline (PBS) and trypsinized prior to colorimetric quantification. The cell pellet containing cell-associated MNPs (MNPcell) was treated with 10% hydrochloric acid at 55° C. for 4 h, followed by adding ammonium persulfate (1 mg/mL) and potassium thiocyanate solution (1 M). The amount of cell-associated iron was determined with VICTOR3 Multilabel Plate Reader (PerkinElmer, Waltham, Mass.) at OD490. A calibration curve was prepared under identical conditions.

HeLa cells = experiment: Determination of cell-associated MNPs (MNPcell) in HeLa cells; assay type: cell-based, human; conditions: for increase of MNPcell: 10 μM; for effect on cell-associated MNPs (MNPcell), in words: with or without magnetic field
Method: as §1
(§2) LN229 or HeLa cells were seeded and grown in 24-well plates. After attaining 80-90% confluence, the cells were exposed to MNPs (100 μg/mL) and phenolic compounds (10 or 30 μM) in the presence or absence of NdFeB magnet underneath the plate for 24 h. In some experiments, cells were equilibrated at 4° C. for 20 min, followed by an additional 2-h incubation with MNPs at 4° C. in the absence and presence of the magnet. A home-made magnetic plate with 24 pieces of cylindrical NdFeB magnet were used to provide a magnetic field of 3.4 kG at the center of each well. For the group without the magnet during incubation with MNPs, the magnetic plate was placed underneath the culture plates for 5 min after MNP administration to facilitate MNP sedimentation. The cells were then washed twice with phosphate-buffered saline (PBS) and trypsinized prior to colorimetric quantification. The cell pellet containing cell-associated MNPs (MNPcell) was treated with 10% hydrochloric acid at 55° C. for 4 h, followed by adding ammonium persulfate (1 mg/mL) and potassium thiocyanate solution (1 M). The amount of cell-associated iron was determined with VICTOR3 Multilabel Plate Reader (PerkinElmer, Waltham, Mass.) at OD490. A calibration curve was prepared under identical conditions.

LN229 cells [2] = experiment: Confocal microscopy of fluorescent CMX-MNP internalization; assay type: cell-based, human
Method: LN229 cells were seeded onto poly-lysine coated coverslips 18 h before experiments. The cells were incubated with green fluorescent MNPs with carboxylmethyl-dextran coating (nano-screenMAG-CMX; 100 μg/mL) and methyl gallate (30 μM) at 37° C. for 2 h in the presence of NdFeB magnet underneath the culture plate. Cells were then washed twice with PBS and then incubated with Lysotracker® (0.125 μM) for 30 min for staining of lysosomes. The cells were than washed with PBS and fixed with 4% paraformaldehyde for 20 min at room temperature. The cells were counterstained with DAPI and imaged with a Zeiss LSM 510 Meta laser confocal microscope system equipped with a 100×/1.4 oil immersion objective lens. Image processing and analysis of fluorescent MNPs colocalized with cells was performed using Fiji Image J.

tumor cells = experiment: Timing of EGCG and MNP addition, MNPcell in 5 study groups; assay type: cell-based
Method: as §2
In this example, the timing for adding the present polyphenolic compound with MNPs to the tumor cells was investigated. To this purpose, 5 study groups were designed and respectively treated with the designated compounds, then the MNPcell in each group was determined. The concentrations of MNPs and epigallocatechin gallate (EGCG) or compound 12 used in this example were respectively 100 μg/mL and 10 μM. In Group I (the control group), cells were treated with MNPs (2 hrs). In Group 2, cells were first treated with EGCG (2 hrs), which was removed, and then with MNPs (2 hrs). In Group 3, cells were simultaneously treated with EGCG and MNPs for 2 hours. In Group 4, cells were first treated with EGCG (2 hrs), then with the combination of MNP and EGCG (2 hrs). […]

[3] = 10 μM, magnetic field-free environment

## COC(=O)c1cc(O)c(O)c(O)c1 [Compound 2, Methyl Gallate]
LN229 cells [1]; 10 μM, absence of the magnet
  increase of MNPcell: 1.4 fold
LN229 cells [1]; 10 μM, magnet underneath cells
  increase of MNPcell: 2.1 fold
LN229 cells [1]; 50 μM, absence of the magnet
  increase of MNPcell: 4.5 fold
LN229 cells [1]; 50 μM, presence of the magnet
  increase of MNPcell: 2.9 fold
LN229 cells [1]; with the magnet
  enhancement of MNPcell at 4° C.: 0.4 fold
LN229 cells [1]; without magnet
  enhancement of MNPcell at 4° C.: 1.4 fold
LN229 cells [1]; listed as Methyl gallate
  effect on cell-associated MNPs (MNPcell), in words: enhanced MNPcell in a concentration-dependent manner
LN229 cells [1]; listed as methyl gallate
  effect on cell-associated MNPs (MNPcell), in words: concentration-dependent increase
LN229 cells [1]; absence of magnet
  effect on uptake of MNPs, in words: effective in enhancing the uptake of MNPs
LN229 cells [1]; presence of magnet
  effect on uptake of MNPs, in words: effective in enhancing the uptake of MNPs
HeLa cells; absence of the magnet
  increase of MNPcell: 0.6 fold
HeLa cells; presence of the magnet
  increase of MNPcell: 1.0 fold
HeLa cells
  effect on cell-associated MNPs (MNPcell), in words: concentration-dependent increase
LN229 cells [2]; 30 μM, 2 h, CMX-MNP 100 μg/mL, compared to vehicle control
  internalization of MNPs, in words: greatly increased internalization of MNPs
LN229 cells [2]; in the presence of methyl gallate (n=8), vehicle 0.51±0.08
  overlap coefficient, Mander's coefficient, of MNP relative to lysosomes: 0.65±0.03

## O=C(O)CCc1ccc(O)c(O)c1 [Compound 10, Dihydrocaffeic Acid]
LN229 cells [1]; presence of magnet
  effect on uptake of MNPs, in words: enhanced the uptake of MNPs in the presence of magnet

## O.O=C(O)c1cc(O)c(O)c(O)c1 [Compound 1, Gallic acid monohydrate]
LN229 cells [1]; 50 μM, absence of the magnet
  increase of MNPcell: 5.4 fold
LN229 cells [1]; 50 μM, presence of the magnet
  increase of MNPcell: 3.9 fold
LN229 cells [1]; with the magnet
  enhancement of MNPcell at 4° C.: 0.6 fold
LN229 cells [1]; without magnet
  enhancement of MNPcell at 4° C.: 1.9 fold
LN229 cells [1]
  effect on cell-associated MNPs (MNPcell), in words: concentration-dependent increase
LN229 cells [1]; absence of magnet
  effect on uptake of MNPs, in words: effective in enhancing the uptake of MNPs
LN229 cells [1]; presence of magnet
  effect on uptake of MNPs, in words: effective in enhancing the uptake of MNPs
LN229 cells [1]; compared to vehicle, with and without magnet
  concentration as low as which a significant increase in LN229 cell-associated MNPs is induced: 6 µM
HeLa cells; absence of the magnet
  increase of MNPcell: 1.8 fold
HeLa cells; presence of the magnet
  increase of MNPcell: 1.9 fold
HeLa cells
  effect on cell-associated MNPs (MNPcell), in words: concentration-dependent increase

## O=C(O)/C=C/c1ccc(O)c(O)c1 [Compound 9, caffeic acid]
LN229 cells [1]; presence of magnet
  effect on uptake of MNPs, in words: enhanced the uptake of MNPs in the presence of magnet

## NC(=O)c1cc(O)c(O)c(O)c1 [Compound 4, 3,4,5-trihydroxybenzamide]
LN229 cells [1]; absence of magnet
  effect on uptake of MNPs, in words: effective in enhancing the uptake of MNPs
LN229 cells [1]; presence of magnet
  effect on uptake of MNPs, in words: effective in enhancing the uptake of MNPs

## O=C(O[C@@H]1Cc2c(O)cc(O)cc2O[C@@H]1c1ccc(O)c(O)c1)c1cc(O)c(O)c(O)c1 [Compound 13, Epicatechin gallate]
LN229 cells [1]; 10 μM, external magnetic field
  increase of cellular uptake of MNP: 5-6 times
LN229 cells [1]; [3]
  increase of cellular uptake of MNP: 12 times
LN229 cells [1]
  concentration as low as which cellular uptake of MNPs is significantly increased: 3 µM
LN229 cells [1]; listed as ECG
  capability of enhancing cellular uptake of MNPs, in words: possessed the capability of enhancing cellular uptake of MNPs; also recorded: enhanced cellular uptake of MNPs

## O=C(O[C@@H]1Cc2c(O)cc(O)cc2O[C@@H]1c1cc(O)c(O)c(O)c1)c1cc(O)c(O)c(O)c1 [Compound 12, Epigallocatechin gallate]
LN229 cells [1]; 10 μM, external magnetic field
  increase of cellular uptake of MNP: 16 times
LN229 cells [1]; [3]
  increase of cellular uptake of MNP: 5.7 times
LN229 cells [1]
  concentration as low as which cellular uptake of MNPs is significantly increased: 3 µM
LN229 cells [1]; listed as EGCG
  capability of enhancing cellular uptake of MNPs, in words: possessed the capability of enhancing cellular uptake of MNPs; also recorded: enhanced cellular uptake of MNPs
Tumor cells; Group 2: EGCG 10 μM 2 hrs, removed, then MNPs 100 μg/mL 2 hrs
  uptake of MNPs, in words: no enhanced uptake of MNPs was found
Tumor cells; Group 3: EGCG 10 μM and MNPs 100 μg/mL simultaneously 2 hours, presence and absence of magnet
  uptake of MNPs, in words: enhanced uptake of MNPs was achieved
Tumor cells; Groups 4 and 5: EGCG pre-treatment 2 or 4 hrs, then MNP and EGCG 2 hrs, vs Group 3
  uptake of MNPs, in words: did not result in further increase in the cellular uptake of MNPs

## COc1cc(/C=C/C(=O)O)ccc1O [Compound 11, ferulic acid]
LN229 cells [1]; absence of magnet
  effect on uptake of MNPs, in words: none of them was effective
LN229 cells [1]; presence of magnet
  effect on uptake of MNPs, in words: none of them was effective

## O=C(O)c1ccc(O)c(O)c1 [Compound 5, protocatechuic acid]
LN229 cells [1]; presence of magnet
  effect on uptake of MNPs, in words: enhanced the uptake of MNPs in the presence of magnet

## O=C(O)c1cc(O)cc(O)c1 [Compound 7, α-resorcylic acid]
LN229 cells [1]; absence of magnet
  effect on uptake of MNPs, in words: none of them was effective
LN229 cells [1]; presence of magnet
  effect on uptake of MNPs, in words: none of them was effective

## O=c1c(O)c(-c2ccc(O)c(O)c2)oc2cc(O)cc(O)c12 [quercetin]
LN229 cells [1]; 20 μM, absence of magnetic field
  cellular uptake of MNP higher than without compound: 5 times
LN229 cells [1]
  capability of enhancing cellular uptake of MNPs, in words: possessed the capability of enhancing cellular uptake of MNPs; also recorded: enhanced cellular uptake of MNPs
LN229 cells [1]; presence of magnet
  effect on uptake of MNP in the presence of magnet, in words: more significant increase in the uptake of MNP via a concentration-dependent manner

## O=C(O)c1ccc(O)cc1 [Compound 6, p-hydroxybenzoic acid]
LN229 cells [1]; absence of magnet
  effect on uptake of MNPs, in words: none of them was effective
LN229 cells [1]; presence of magnet
  effect on uptake of MNPs, in words: none of them was effective

## CCCOC(=O)c1cc(O)c(O)c(O)c1 [Compound 3, Propyl Gallate]
LN229 cells [1]; absence of magnet
  effect on uptake of MNPs, in words: effective in enhancing the uptake of MNPs
LN229 cells [1]; presence of magnet
  effect on uptake of MNPs, in words: effective in enhancing the uptake of MNPs
